# Results as given in patent US20240216352A1 (priority 2022, published 2024).
# Where “and” joins values, the source holds several entries; their conditions need not be identical. Equal values may be shown once.
# Columns and labels:
# participants with IPF = test: Phase 2 study, IPF cohort: safety and blood pressure monitoring; type: in vivo, human; settings: for Nadir post-dose mean reduction from baseline in sitting SBP: Day 1, 2 hours post-dose
# Method: A total of 278 participants with IPF were randomized and 276 participants were treated as of the final analyses data cut-off (4 Aug. 2022). Male and female participants […] with IPF and percent predicted forced vital capacity (ppFVC) […] and percent predicted DLCO (ppDLCO)≥25%; diagnosed within 7 years of screening; having a centrally-read chest HRCT obtained at screening that was consistent with UIP or probable UIP, or having a lung biopsy consistent with UIP, were eligible to enter the study. The mean baseline ppFVC for all subjects was 76.5%. In the primary IPF cohort, participants were randomized (1:1:1) to receive 30 mg or 60 mg Compound A or placebo (PBO) twice daily for 26 weeks. Participants were stratified by standard of care (SoC) IPF therapy (pirfenidone versus nintedanib versus none) and region (Japan versus Rest of World) at randomization.
# Patient experiences any of the following, confirmed by retest within 15 minutes: • Seated systolic blood pressure <85 mmHg • Seated diastolic blood pressure <55 mmHg • Orthostatic hypotension
# (§1) Patient experiences symptoms that, in the investigator's opinion, could be associated with a reduction in blood pressure and also experiences at least one of the following, confirmed by retest within 15 minutes: • Seated systolic blood pressure <100 mmHg or seated diastolic blood pressure <60 mmHg • Decrease of seated systolic blood pressure of ≥20 mmHg from the previous visit or decrease of seated diastolic blood pressure of ≥10 mmHg from the previous visit • Orthostatic hypotension • Orthostatic tachycardia
# participants with PPF = test: Phase 2 study, PPF cohort: safety and blood pressure; type: in vivo, human; settings: for Treatment discontinuations: 26-week treatment phase; for Nadir postdose reduction from baseline in mean seated systolic blood pressure: day 1
# Method: A total of 123 participants with PPF were randomized. Participants (age ≥21 years) were randomized (1:1:1) to receive 30 mg or 60 mg Compound A or PBO twice daily for 26 weeks. […] Immunosuppressive medications (mycophenolate mofetil, mycophenolic acid, azathioprine and/or tacrolimus) were permitted only if dosing is stable for ≥6 months prior to screening. If receiving antifibrotic agents pirfenidone or nintedanib, patients had to receive a stable dosage for ≥3 months prior to screening and during the screening period; if not receiving pirfenidone or nintedanib, patients had to be naive to both drugs or not have received either 4 weeks prior to Day 1. A total of 47 (38.2%) subjects were receiving antifibrotic treatment (with or without immunosuppression therapy). Of those subjects, 34 were being treated with nintedanib and 13 with pirfenidone. Participants were stratified by usual interstitial pneumonia (UIP) pattern (presence versus absence) and background therapy (antifibrotics+/−ILD-targeted immunosuppression versus ILD-targeted immunosuppression alone versus none). UIP pattern was present in 52% of subjects and unclassifiable ILD was the most common disease categorization.
# Patient is experiencing any of the following, confirmed by retest within 15 minutes: • Seated systolic blood pressure <85 mmHg • Seated diastolic blood pressure <55 mmHg • Orthostatic hypotension
# as §1, with “Patient is experiencing” for “Patient experiences”, “and is” for “and”, “also experiencing” for “also experiences”
# [1] = Active Total (30 mg and 60 mg groups)
structure (smiles),measurement,setting,value
"CCCN(C)C(=O)OCc1c(-c2ccc(O[C@H]3CCC[C@H](C(=O)O)C3)c(C)n2)nnn1C [Compound A, (1S,3S)-3-((2-methyl-6-(1-methyl-5-(((methyl(propyl)carbamoyl)-oxy)methyl)-1H-1,2,3-triazol-4-yl)pyridin-3-yl)oxy)cyclohexane-1-carboxylic acid]",Dose reductions to 10 mg BID due to protocol-defined low BP criteria,participants with IPF; 30 mg BID,7 (7.7%) n (%) and 7 (7.7) n (%)
same,Treatment discontinuations due to TEAEs,participants with IPF; 30 mg BID,9.9%
same,Asymptomatic low blood pressure,participants with IPF; 30 mg BID (N = 91),22 (24.2%) n (%) and 22 (24.2) n (%)
same,Orthostatic hypotension observed in asymptomatic low BP,participants with IPF; 30 mg BID (N = 91),21 (23.1%) n (%) and 21 (23.1) n (%)
same,Orthostatic hypotension observed in symptomatic low BP,participants with IPF; 30 mg BID (N = 91),9 (9.9%) n (%) and 9 (9.9) n (%)
same,Orthostatic intolerance,participants with IPF; 30 mg BID (N = 91),10 (11.0%) n (%) and 10 (11.0) n (%)
same,Subjects discontinuing study treatment due to a TEAE,participants with IPF; 30 mg BID (N = 91),9 (9.9%) n (%) and 9 (9.9) n (%)
same,Subjects who died,participants with IPF; 30 mg BID (N = 91),4 (4.4%) n (%) and 4 (4.4) n (%)
same,Subjects who died due to a TEAE,participants with IPF; 30 mg BID (N = 91),3 (3.3%) n (%) and 3 (3.3) n (%)
same,Subjects with at least one AESI,participants with IPF; 30 mg BID (N = 91),18 (19.8%) n (%) and 18 (19.0) n (%)
same,Subjects with at least one TEAE,participants with IPF; 30 mg BID (N = 91),69 (75.8%) n (%) and 69 (75.8) n (%)
same,Subjects with at least one TEAE related to the study treatment,participants with IPF; 30 mg BID (N = 91),23 (25.3%) n (%) and 23 (25.3) n (%)
same,Subjects with at least one TESAE,participants with IPF; 30 mg BID (N = 91),10 (11.0%) n (%) and 10 (11.0) n (%)
same,Symptomatic low blood pressure,participants with IPF; 30 mg BID (N = 91),11 (12.1%) n (%) and 11 (12.1) n (%)
same,Nadir post-dose mean reduction from baseline in sitting SBP,participants with IPF; 30 mg,−10.5 mmHg
same,Dose reductions to 10 mg BID due to protocol-defined low BP criteria,participants with IPF; 60 mg BID,6 (6.5%) n (%) and 6 (6.5) n (%)
same,Treatment discontinuations due to TEAEs,participants with IPF; 60 mg BID,6.5%
same,Asymptomatic low blood pressure,participants with IPF; 60 mg BID (N = 93),17 (18.3%) n (%) and 17 (18.3) n (%)
same,Orthostatic hypotension observed in asymptomatic low BP,participants with IPF; 60 mg BID (N = 93),14 (15.1%) n (%) and 14 (15.1) n (%)
same,Orthostatic hypotension observed in symptomatic low BP,participants with IPF; 60 mg BID (N = 93),5 (5.4%) n (%) and 5 (5.4) n (%)
same,Orthostatic intolerance,participants with IPF; 60 mg BID (N = 93),2 (2.2%) n (%) and 2 (2.2) n (%)
same,Subjects discontinuing study treatment due to a TEAE,participants with IPF; 60 mg BID (N = 93),6 (6.5%) n (%) and 6 (6.5) n (%)
same,Subjects who died,participants with IPF; 60 mg BID (N = 93),5 (5.4%) n (%) and 5 (5.4) n (%)
same,Subjects who died due to a TEAE,participants with IPF; 60 mg BID (N = 93),4 (4.3%) n (%) and 4 (4.3) n (%)
same,Subjects with at least one AESI,participants with IPF; 60 mg BID (N = 93),9 (9.7%) n (%) and 9 (9.7) n (%)
same,Subjects with at least one TEAE,participants with IPF; 60 mg BID (N = 93),69 (74.2%) n (%) and 69 (74.2) n (%)
same,Subjects with at least one TEAE related to the study treatment,participants with IPF; 60 mg BID (N = 93),25 (26.9%) n (%) and 25 (26.9) n (%)
same,Subjects with at least one TESAE,participants with IPF; 60 mg BID (N = 93),10 (10.8%) n (%) and 10 (10.8) n (%)
same,Symptomatic low blood pressure,participants with IPF; 60 mg BID (N = 93),6 (6.5%) n (%) and 6 (6.5) n (%)
same,Risk of orthostatic and low BP events compared to PBO,participants with IPF; 60 mg twice daily (BID),"not associated with any increased risk of orthostatic intolerance, orthostatic hypotension, orthostatic tachycardia, or symptomatic or asymptomatic low BP"
same,Nadir post-dose mean reduction from baseline in sitting SBP,participants with IPF; 60 mg,−14.1 mmHg
same,Subjects discontinuing study treatment due to a TEAE,participants with IPF; [1],15 (8.2) n (%)
same,Subjects who died,participants with IPF; [1],9 (4.9) n (%)
same,Subjects who died due to a TEAE,participants with IPF; [1],7 (3.8) n (%)
same,Subjects with at least one AESI,participants with IPF; [1],27 (14.7) n (%)
same,Subjects with at least one TEAE,participants with IPF; [1],138 (75.0) n (%)
same,Subjects with at least one TEAE related to the study treatment,participants with IPF; [1],48 (26.1) n (%)
same,Subjects with at least one TESAE,participants with IPF; [1],20 (10.9) n (%)
same,Hepatobiliary toxicity,participants with PPF; PPF cohort,No hepatobiliary toxicity
same,Tolerability and safety findings,participants with PPF; PPF cohort,"well-tolerated, demonstrated no unexpected safety findings"
same,Low BP thresholds (events),"participants with PPF; PPF, 30 mg",30%
same,Asymptomatic blood pressure reduction (prespecified criteria),"participants with PPF; PPF, 30 mg BID (n = 40)",9 (22.5) no. (%)
same,COVID-19,"participants with PPF; PPF, 30 mg BID (n = 40)",6 (15.0) no. (%)
same,Cough,"participants with PPF; PPF, 30 mg BID (n = 40)",3 (7.5) no. (%)
same,Deaths due to TEAEs,"participants with PPF; PPF, 30 mg BID (n = 40)",0 no. (%)
same,Diarrhea,"participants with PPF; PPF, 30 mg BID (n = 40)",6 (15.0) no. (%)
same,Discontinuations due to TEAEs,"participants with PPF; PPF, 30 mg BID (n = 40)",1 no. (%) and 1 (2.5) no. (%)
same,Dizziness,"participants with PPF; PPF, 30 mg BID (n = 40)",0 no. (%)
same,Dose reductions,"participants with PPF; PPF, 30 mg BID (n = 40)",6 (15.0) no. (%)
same,Dyspnea,"participants with PPF; PPF, 30 mg BID (n = 40)",2 (5.0) no. (%)
same,Hypertension,"participants with PPF; PPF, 30 mg BID (n = 40)",0 no. (%)
same,Hypotension,"participants with PPF; PPF, 30 mg BID (n = 40)",4 (10.0) no. (%)
same,Nausea,"participants with PPF; PPF, 30 mg BID (n = 40)",4 (10.0) no. (%)
same,Orthostatic hypotension (TEAE),"participants with PPF; PPF, 30 mg BID (n = 40)",2 (5.0) no. (%)
same,Orthostatic hypotension within asymptomatic blood pressure reduction,"participants with PPF; PPF, 30 mg BID (n = 40)",6 (15.0) no. (%)
same,Orthostatic hypotension within symptomatic blood pressure reduction,"participants with PPF; PPF, 30 mg BID (n = 40)",1 (2.5) no. (%)
same,Rash,"participants with PPF; PPF, 30 mg BID (n = 40)",3 (7.5) no. (%)
same,Symptomatic blood pressure reduction (prespecified criteria),"participants with PPF; PPF, 30 mg BID (n = 40)",2 (5.0) no. (%)
same,Vomiting,"participants with PPF; PPF, 30 mg BID (n = 40)",3 (7.5) no. (%)
same,≥1 TEAE,"participants with PPF; PPF, 30 mg BID (n = 40)",33 (82.5) no. (%)
same,≥1 TEAE related to study drug,"participants with PPF; PPF, 30 mg BID (n = 40)",7 (17.5) no. (%)
same,≥1 TESAE,"participants with PPF; PPF, 30 mg BID (n = 40)",4 (10.0) no. (%)
same,Treatment discontinuations,"participants with PPF; PPF, 30 mg BID",7.5%
same,Nadir postdose reduction from baseline in mean seated systolic blood pressure,"participants with PPF; PPF, 30 mg",−10.7 mmHg
same,Asymptomatic blood pressure reduction (prespecified criteria),"participants with PPF; PPF, 60 mg BID (n = 42)",13 (31.0) no. (%)
same,COVID-19,"participants with PPF; PPF, 60 mg BID (n = 42)",6 (14.3) no. (%)
same,Cough,"participants with PPF; PPF, 60 mg BID (n = 42)",5 (11.9) no. (%)
same,Deaths due to TEAEs,"participants with PPF; PPF, 60 mg BID (n = 42)",0 no. (%)
same,Diarrhea,"participants with PPF; PPF, 60 mg BID (n = 42)",3 (7.1) no. (%)
same,Discontinuations due to TEAEs,"participants with PPF; PPF, 60 mg BID (n = 42)",0 no. (%)
same,Dizziness,"participants with PPF; PPF, 60 mg BID (n = 42)",4 (9.5) no. (%)
same,Dose reductions,"participants with PPF; PPF, 60 mg BID (n = 42)",5 (11.9) no. (%)
same,Dyspnea,"participants with PPF; PPF, 60 mg BID (n = 42)",0 no. (%)
same,Hypertension,"participants with PPF; PPF, 60 mg BID (n = 42)",1 (2.4) no. (%)
same,Hypotension,"participants with PPF; PPF, 60 mg BID (n = 42)",3 (7.1) no. (%)
same,Nausea,"participants with PPF; PPF, 60 mg BID (n = 42)",1 (2.4) no. (%)
same,Orthostatic hypotension (TEAE),"participants with PPF; PPF, 60 mg BID (n = 42)",4 (9.5) no. (%)
same,Orthostatic hypotension within asymptomatic blood pressure reduction,"participants with PPF; PPF, 60 mg BID (n = 42)",11 (26.2) no. (%)
same,Orthostatic hypotension within symptomatic blood pressure reduction,"participants with PPF; PPF, 60 mg BID (n = 42)",4 (9.5) no. (%)
same,Rash,"participants with PPF; PPF, 60 mg BID (n = 42)",0 no. (%)
same,Symptomatic blood pressure reduction (prespecified criteria),"participants with PPF; PPF, 60 mg BID (n = 42)",6 (14.3) no. (%)
same,Vomiting,"participants with PPF; PPF, 60 mg BID (n = 42)",0 no. (%)
same,≥1 TEAE,"participants with PPF; PPF, 60 mg BID (n = 42)",28 (66.7) no. (%)
same,≥1 TEAE related to study drug,"participants with PPF; PPF, 60 mg BID (n = 42)",11 (26.2) no. (%)
same,≥1 TESAE,"participants with PPF; PPF, 60 mg BID (n = 42)",5 (11.9) no. (%)
same,Treatment discontinuations,"participants with PPF; PPF, 60 mg BID",4.8%
same,Orthostatic hypotension (asymptomatic and symptomatic) versus other groups,"participants with PPF; PPF, 60 mg group",higher in the 60 mg group than for other groups
same,Nadir postdose reduction from baseline in mean seated systolic blood pressure,"participants with PPF; PPF, 60 mg",−12.7 mmHg
